PubChem BioAssay AID1259411 (Chemical Carcinogenesis Research Information System (CCRIS), 2018)
The source made the active and inactive calls. How the calls were made is not given here.

Test system: rodent carcinogenicity bioassays, tumor incidence
Experiment: CCRIS carcinogenicity studies
Outline: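 Archive of carcinogenicity, mutagenicity, tumor promotion and tumor inhibition results drawn from journals, NCI reports and other sources, expert-reviewed; covers 1985-2011 and is no longer updated.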

## CC(=O)Nc1ccc2c(c1)Cc1ccccc1-2
Species: DOG, Strain/Sex: BEAGLE, Route: ORAL, Dose: 8.3-10.9 MG/KG/D (AVE DAILY INTAKE) FOR 68.5-91 MO (TOTAL DOSE: 90-198 G), Tumor Site: Type of Lesion: LIVER: CARCINOMA, URINARY BLADDER: PAPILLOMA
  carcinogen call: active; positive
Species: FISH, Strain/Sex: GUPPY/ MALE, FEMALE, Route: IMMERSION, Dose: 0, 1 MG/L IN WELL WATER FOR 1 6 HR EXPOSURE OR FOR 1,2,3 OR 4 12 HR EXPOSURES, MULTIPLE EXPOSURES GIVEN AT WEEKLY INTERV
  carcinogen call: inactive; negative
Species: FISH, Strain/Sex: GUPPY/ MALE, FEMALE, Route: IMMERSION, Dose: 0, 1 MG/L IN WELL WATER FOR 7 D CONTINUOUS EXPOSURE, SOLUTIONS RENEWED EVERY 24 HR (STUDY DURATION: 52 WK), Tumor Site: Type of Lesion: LIVER: TUMOR
  carcinogen call: active; positive
Species: FISH, Strain/Sex: MEDAKA/ MALE, FEMALE, Route: IMMERSION, Dose: 0, 1 MG/L IN WELL WATER FOR 1 6 HR EXPOSURE OR FOR 1,2,3 OR 4 12 HR EXPOSURES, MULTIPLE EXPOSURES GIVEN AT WEEKLY INTERV
  carcinogen call: inactive; negative
Species: FISH, Strain/Sex: MEDAKA/ MALE, FEMALE, Route: IMMERSION, Dose: 0, 1 MG/L IN WELL WATER FOR 7 D CONTINUOUS EXPOSURE, SOLUTIONS RENEWED EVERY 24 HR (STUDY DURATION: 52 WK)
  carcinogen call: inactive; negative
Species: HAMSTER, Strain/Sex: SYRIAN/ MALE, FEMALE, Route: INTRAPERITONEAL, ORAL, Dose: 5 MG/100 G 3/WK FOR 3 WK, THEN 0.06% IN DIET, Tumor Site: Type of Lesion: URINARY BLADDER, LIVER: CHOLANGIOCARCINOMA
  carcinogen call: active; positive
Species: HAMSTER, Strain/Sex: SYRIAN/FEMALE, Route: ORAL, Dose: 0.025% IN DIET FOR LIFE, Tumor Site: Type of Lesion: LIVER: INTRAHEPATIC BILE DUCT CARCINOMA
  carcinogen call: active; positive
Species: HAMSTER, Strain/Sex: SYRIAN, Route: ORAL, Dose: 5 MG FOR 22 WK THEN 15 MG FOR 4 WK, THEN 10 MG 2/WK AFTER 42 WK, Tumor Site: Type of Lesion: URINARY BLADDER: CARCINOMA
  carcinogen call: active; positive
Species: MOUSE, Strain/Sex: BALB/C/FEMALE, Route: ORAL, Dose: 0, 75, 100, 150 PPM IN DIET UP TO 33 MO (STUDY DURATION: 33 MO), Dose: 0, 75, 100, 150 PPM IN DIET UP TO 33 MO (STUDY DURATION: 33 MO), Tumor Site: Type of Lesion: LIVER: HEPATOCELLULAR ADENOMA OR CARCINOMA, BLADDER: TRANSITIONAL CELL CARCINOMA
  carcinogen call: active; positive
Species: MOUSE, Strain/Sex: CBA/ MALE, FEMALE, Route: ORAL, Dose: 3 MG/MOUSE 2/WK, Tumor Site: Type of Lesion: MAMMARY GLAND, URINARY BLADDER, LIVER, Tumor Site: Type of Lesion: MAMMARY GLAND, URINARY BLADDER, LIVER
  carcinogen call: active; positive
Species: MOUSE, Strain/Sex: EU-PIM-1/FEMALE, Route: GAVAGE, Dose: 0, 25, 100 MG/KG 1/D FOR 38 WK (STUDY DURATION: 38 WK), Dose: 0, 25, 100 MG/KG 1/D FOR 38 WK (STUDY DURATION: 38 WK)
  carcinogen call: inactive; negative
Species: MOUSE, Strain/Sex: EU-PIM-1/MALE, Route: GAVAGE, Dose: 0, 25, 100 MG/KG 1/D FOR 38 WK (STUDY DURATION: 38 WK), Dose: 0, 25, 100 MG/KG 1/D FOR 38 WK (STUDY DURATION: 38 WK), Tumor Site: Type of Lesion: LYMPHATIC SYSTEM: LYMPHOMA
  carcinogen call: active; positive
Species: MOUSE, Strain/Sex: R-III/ MALE, FEMALE, Route: ORAL, Dose: 3 MG/MOUSE 2/WK, Tumor Site: Type of Lesion: URINARY BLADDER, LIVER
  carcinogen call: active; positive
Species: MOUSE, Strain/Sex: STRAIN-A/ MALE, FEMALE, Route: ORAL, Dose: 3 MG/MOUSE 2/WK, Tumor Site: Type of Lesion: URINARY BLADDER
  carcinogen call: active; positive
Species: MOUSE, Strain/Sex: STRAIN-IF/ MALE, FEMALE, Route: ORAL, Dose: 3 MG/MOUSE 2/WK, Tumor Site: Type of Lesion: URINARY BLADDER, LIVER, MAMMARY GLAND, Tumor Site: Type of Lesion: URINARY BLADDER, LIVER, MAMMARY GLAND
  carcinogen call: active; positive
Species: RABBIT, Strain/Sex: NZW/ MALE, FEMALE, Route: ORAL, Dose: 100 MG 2/WK (TOTAL DOSE 21-52 G AS POWDER), Tumor Site: Type of Lesion: URINARY BLADDER: PAPILLOMA, ADENOCARCINOMA, URETER: PAPILLOMA, ADENOCARCINOMA
  carcinogen call: active; positive
Species: RABBIT, Strain/Sex: NZW/FEMALE, Route: ORAL, Dose: 100 MG IN 1 ML CORN OIL 2/WK FOR LIFE, Tumor Site: Type of Lesion: URINARY BLADDER: TRANSITIONAL CELL TUMOR, KIDNEY: TRANSITIONAL CELL TUMOR
  carcinogen call: active; positive
Species: RAT, Strain/Sex: AES/FEMALE, Route: ORAL, Dose: 300 MG/KG IN SEMI-PURIFIED OR STOCK DIET, Tumor Site: Type of Lesion: EAR (DUCT): CARCINOMA
  carcinogen call: active; positive
Species: RAT, Strain/Sex: ALBINO/ MALE, FEMALE, Route: ORAL, Dose: 0.036% IN DIET FOR 8 MO, Tumor Site: Type of Lesion: LIVER: HEPATOMA, MAMMARY GLAND, EAR (DUCT), Tumor Site: Type of Lesion: LIVER: HEPATOMA, MAMMARY GLAND, EAR (DUCT)
  carcinogen call: active; positive
Species: RAT, Strain/Sex: ALBINO/FEMALE, Route: ORAL, Dose: 0.125% IN DIET, Tumor Site: Type of Lesion: URINARY BLADDER: CARCINOMA
  carcinogen call: active; positive
Species: RAT, Strain/Sex: ALBINO/MALE, Route: ORAL, Dose: 0.018, 0.036% IN DIET FOR 90 DAYS, Tumor Site: Type of Lesion: LIVER: HEPATOMA, EAR (DUCT), INTESTINES (SMALL), Tumor Site: Type of Lesion: LIVER: HEPATOMA, EAR (DUCT), INTESTINES (SMALL)
  carcinogen call: active; positive
Species: RAT, Strain/Sex: BUFFALO/ MALE, FEMALE, Route: ORAL, Dose: 0.05% IN DIET FOR 23 WK (580 MG/RAT), Tumor Site: Type of Lesion: LIVER: HEPATOMA, EAR (DUCT): CARCINOMA
  carcinogen call: active; positive
Species: RAT, Strain/Sex: F344/MALE, Route: ORAL, Dose: 0.06% IN DIET FOR 3 WK, THEN CONTROL DIET FOR 1 WK, REPEATED 3X, Tumor Site: Type of Lesion: TESTES: MESOTHELIOMA, LIVER: HEPATOCELLULAR CARCINOMA, CHOLANGIOCARCINOMA
  carcinogen call: active; positive
Species: RAT, Strain/Sex: FEMALE, Route: ORAL, Dose: 0.03% IN DIET, Tumor Site: Type of Lesion: EYE
  carcinogen call: active; positive
Species: RAT, Strain/Sex: FEMALE, Route: ORAL, Dose: 1.62 MMOL/KG DIET FOR 8 MO, Tumor Site: Type of Lesion: MAMMARY GLAND, EAR (DUCT), INTESTINES (SMALL), Tumor Site: Type of Lesion: MAMMARY GLAND, EAR (DUCT), INTESTINES (SMALL)
  carcinogen call: active; positive
Species: RAT, Strain/Sex: HOLTZMAN/FEMALE, Route: ORAL, Dose: 1.62 MMOL/KG IN DIET, Tumor Site: Type of Lesion: MAMMARY GLAND, EAR (DUCT), INTESTINES (SMALL), Tumor Site: Type of Lesion: MAMMARY GLAND, EAR (DUCT), INTESTINES (SMALL)
  carcinogen call: active; positive
Species: RAT, Strain/Sex: HOLTZMAN/MALE, Route: ORAL, Dose: 1.62 MMOL/KG IN DIET, Tumor Site: Type of Lesion: LIVER, EAR (DUCT), INTESTINES (SMALL), Tumor Site: Type of Lesion: LIVER, EAR (DUCT), INTESTINES (SMALL)
  carcinogen call: active; positive
Species: RAT, Strain/Sex: LONG-EVANS/ MALE, FEMALE, Route: ORAL, Dose: IN DIET, Tumor Site: Type of Lesion: EAR (AUDITORY CANAL): SQUAMOUS CELL CARCINOMA
  carcinogen call: active; positive
Species: RAT, Strain/Sex: MALE, Route: ORAL, Dose: 1.62 MMOL/KG IN DIET FOR 8 MO, Tumor Site: Type of Lesion: LIVER: HEPATOMA, INTESTINES (SMALL), EAR (DUCT), Tumor Site: Type of Lesion: LIVER: HEPATOMA, INTESTINES (SMALL), EAR (DUCT)
  carcinogen call: active; positive
Species: RAT, Strain/Sex: PIEBALD/ MALE, FEMALE, Route: ORAL, Dose: 4 MG DAILY IN DIET FOR 25 WK, Tumor Site: Type of Lesion: LIVER: HEPATOMA, EAR (DUCT): CARCINOMA, INTESTINES: CARCINOMA, Tumor Site: Type of Lesion: LIVER: HEPATOMA, EAR (DUCT): CARCINOMA, INTESTINES: CARCINOMA
  carcinogen call: active; positive
Species: RAT, Strain/Sex: PIEBALD/FEMALE, Route: ORAL, Dose: 0.03% IN DIET, Tumor Site: Type of Lesion: MAMMARY GLAND: CARCINOMA
  carcinogen call: active; positive
Species: RAT, Strain/Sex: PIEBALD/MALE, Route: DERMAL, Dose: IN ACETONE, Tumor Site: Type of Lesion: LIVER: HEPATOMA, INTESTINES: CARCINOMA
  carcinogen call: active; positive
Species: RAT, Strain/Sex: SHEFFIELD/ MALE, FEMALE, Route: ORAL, Dose: 4 MG DAILY IN DIET FOR 25 WK, Tumor Site: Type of Lesion: LIVER: HEPATOMA, EAR (DUCT): CARCINOMA, INTESTINES: CARCINOMA, Tumor Site: Type of Lesion: LIVER: HEPATOMA, EAR (DUCT): CARCINOMA, INTESTINES: CARCINOMA
  carcinogen call: active; positive
Species: RAT, Strain/Sex: SHERMAN/ MALE, FEMALE, Route: ORAL, Dose: 0.03% IN DIET FOR LIFE, Tumor Site: Type of Lesion: LIVER: CARCINOMA
  carcinogen call: active; positive
Species: RAT, Strain/Sex: SPRAGUE-DAWLEY/FEMALE, Route: INTRAPERITONEAL, Dose: 1 MG/0.1 ML 3/WK FOR 4 WK (TOTAL DOSE 0.17 MMOL/RAT), Tumor Site: Type of Lesion: MAMMARY GLAND: ADENOCARCINOMA
  carcinogen call: active; positive
Species: RAT, Strain/Sex: SPRAGUE-DAWLEY/FEMALE, Route: ORAL, Dose: 300 MG/KG IN SEMI-PURIFIED OR STOCK DIET, Tumor Site: Type of Lesion: EAR (DUCT): CARCINOMA
  carcinogen call: active; positive
Species: RAT, Strain/Sex: STRAIN-CD/FEMALE, Route: ORAL, Dose: 80, 250 PPM IN DIET FOR 78 WK (LOW DOSE) OR 50 WK (HIGH DOSE), Tumor Site: Type of Lesion: LIVER: NEOPLASTIC NODULE, HEPATOCELLULAR CARCINOMA, MAMMARY GLAND: ADENOCARCINOMA
  carcinogen call: active; positive
Species: RAT, Strain/Sex: STRAIN-CD/MALE, Route: ORAL, Dose: 80, 250 PPM IN DIET FOR 78 WK (LOW DOSE) OR 50 WK (HIGH DOSE), Tumor Site: Type of Lesion: LIVER: HEPATOCELLULAR CARCINOMA
  carcinogen call: active; positive
Species: RAT, Strain/Sex: WISTAR/ MALE, FEMALE, Route: ORAL, Dose: 0.03% IN DIET FOR LIFE, Tumor Site: Type of Lesion: LIVER: CARCINOMA
  carcinogen call: active; positive
Species: RAT, Strain/Sex: WISTAR/ MALE, FEMALE, Route: ORAL, Dose: 0.07% IN DIET, Tumor Site: Type of Lesion: LIVER: HEPATOMA
  carcinogen call: active; positive
Species: RAT, Strain/Sex: WISTAR/MALE, Route: DERMAL, Dose: IN ACETONE, Tumor Site: Type of Lesion: LIVER: HEPATOMA, INTESTINES: CARCINOMA
  carcinogen call: active; positive
